Source: PMC11350846, “Synthesis of Second-Generation Analogs of Temporin-SHa Peptide Having Broad-Spectrum Antibacterial and Anticancer Effects” (Antibiotics, 2024)
Where a SMILES comes first, the peptide text is derived from it. [ ]: non-standard residue; d: D form.

Experiments:
[1] = Circular dichroism, secondary structure (Bestsel); assay type: physicochemical; settings: CD in 20 mM SDS
Experimental: Circular dichroism of temporin SHa, [G10a]-SHa and newly synthesised second-generation analogs of [G10a]-SHa in 20 mM SDS are shown in Figure 2. In lipidic environments mimicked by SDS, peptides adopt an alpha helical structure due to their amphipathic nature. This structural feature is important for their antimicrobial activity, allowing for their insertion into bacterial membranes. The hydrophobic region of the peptide interacts with the hydrophobic portion of the lipid while the hydrophilic region remains exposed to the aqueous environment. The percentage of alpha helix, as well as the percentage of other secondary structures, was determined from CD data using Bestsel software (https://bestsel.elte.hu/index.php, (accessed on 22 June 2024)) (Table 3). Temporin-SHa (1) adopted a 49.5% α-helical structure, while its first-generation analog [G10a]-SHa (2) acquired a 82.4% alpha helical structure. The 84.6%, 88.7%, 4.7%, and 53.8% alpha helical structures were acquired for second-generation analogs 3, 4, 5, and 6, respectively.
The far-ultraviolet CD spectra were obtained using a JASCO J-810 spectropolarimeter (Jasco, Tokyo, Japan). In addition to this, the quartz cuvette of 10 mm path length was used. The temperature was maintained at 22 °C, and the output of the instrument was calibrated using D-(+)-10-camphorsulfonic acid. The peptides, which were present at a concentration of 1.0 mg/mL, were dissolved completely in 20 mM SDS at a concentration of 15 µM [21]. The instrument was set to record wavelengths ranging from 190 to 260 nm with a bandwidth of 2 nm. Ten consecutive scans (accumulations) were recorded for each spectrum at a rate of 50 nm/min, and the baseline was acquired under the same conditions.

[2] = system: human cancer and normal/non-cancerous cells; assay type: cell-based; settings: cancer or normal cells, except breast cancer MCF-7 cells; read-out: IC50, cancer or normal cell proliferation
Experimental: (§1) The antiproliferative activity of the peptides was evaluated, as previously described using human cancer cell lines (A549 (lung), A2780 (ovary), HepG-2 (liver), MCF-7 (breast), MiaPaCa-2 (pancreas), MNT-1 (skin), and PC-3 (prostate)) and normal human lung fibroblasts (IMR-90) or epithelial cells (BEAS-2B). The cells were cultured in DMEM supplemented with 10% FBS, 1% L-glutamine, and 1% antibiotics at 37 °C in a 5% CO2 incubator. For the antiproliferative assay, cells were seeded in 96-well plates at approximately 3000 cells/well. Twenty-four hours later, cells were treated with increasing concentrations of peptides (1:2 serial dilution from 100 µM to 0 µM) for 48 h. After treatment, the number of viable cells was determined using a resazurin-based assay, and the fluorescence intensity was measured with a microplate reader (Ex 530 nm/Em 590 nm). The IC50 values of the peptides (i.e., the concentrations causing 50% inhibition of cell proliferation) were determined using GraphPad® Prism 7 software. The experiments were performed in triplicate (n = 3). The cytotoxicity of the peptides was also evaluated using confluent/no-dividing cells, as previously described. Briefly, human cells were seeded onto 96-well plates at 20,000 cells/well. When they reached 80–90% confluence (after 24–48 h), cells were treated with escalating concentrations of peptides. After 48h incubation, cell viability was measured using a resazurin assay and CC50 (i.e., the concentrations causing 50% inhibition of cell viability) and determined using GraphPad® Prism 7 software. The experiments were performed in triplicate (n = 3).

[3] = system: human cancer cells; assay type: cell-based; settings: mean of all human cancer cells tested; read-out: IC50, mean over cancer cells
Experimental: as §1

CC[C@H](C)[C@H](NC(=O)CNC(=O)[C@H](CO)NC(=O)[C@H](CC(C)C)NC(=O)[C@@H](N)Cc1ccccc1)C(=O)N[C@H](C(=O)NCC(=O)N[C@@H](CCSC)C(=O)N[C@@H](CC(C)C)C(=O)NCC(=O)N[C@@H](CCCCN)C(=O)N[C@@H](CC(C)C)C(=O)N[C@@H](Cc1ccccc1)C(N)=O)C(C)C [Temporin-SHa (1), H-Phe^1-Leu^2-Ser^3-Gly^4-IIe^5-Val^6-Gly^7-Met^8-Leu^9-Gly^10-Lys^11-Leu^12-Phe^13-NH2, reference compound] (H-FLSGIVGMLGKLF-NH2)
Antiparallel [1]: 0.00% | Helix (alpha helical structure) [1]: 49.5% | Others [1]: 49.80% | Parallel [1]: 0.00% | Turn [1]: 0.70% | IC50 [2]: > 100 µM

CC[C@H](C)[C@H](NC(=O)CNC(=O)[C@H](CO)NC(=O)[C@H](CC(C)C)NC(=O)[C@@H](N)Cc1ccccc1)C(=O)N[C@H](C(=O)NCC(=O)N[C@@H](CCSC)C(=O)N[C@@H](CC(C)C)C(=O)N[C@H](C)C(=O)N[C@@H](CCCCN)C(=O)N[C@@H](CC(C)C)C(=O)N[C@@H](Cc1ccccc1)C(N)=O)C(C)C [[G10a]-SHa (2), H-Phe^1-Leu^2-Ser^3-Gly^4-IIe^5-Val^6-Gly^7-Met^8-Leu^9-D-Ala^10-Lys^11-Leu^12-Phe^13-NH2] (H-FLSGIVGML[dA]KLF-NH2)
Antiparallel [1]: 17.60% | Helix (alpha helical structure) [1]: 82.4% | Others [1]: 0.00% | Parallel [1]: 0.00% | Turn [1]: 0.00% | IC50 [3]: 18.7 ± 9 µM
